Structures are written as SMILES. Structures can show the parent of a compound that is named as a salt.

In one experiment the target is T1, HCMV polymerase (Human cytomegalovirus, UniProt P08546).
T1 construct: made in house; host or cells: recombinant baculovirus-infected SF-9 insect cells
T1 sequence (P08546 whole entry): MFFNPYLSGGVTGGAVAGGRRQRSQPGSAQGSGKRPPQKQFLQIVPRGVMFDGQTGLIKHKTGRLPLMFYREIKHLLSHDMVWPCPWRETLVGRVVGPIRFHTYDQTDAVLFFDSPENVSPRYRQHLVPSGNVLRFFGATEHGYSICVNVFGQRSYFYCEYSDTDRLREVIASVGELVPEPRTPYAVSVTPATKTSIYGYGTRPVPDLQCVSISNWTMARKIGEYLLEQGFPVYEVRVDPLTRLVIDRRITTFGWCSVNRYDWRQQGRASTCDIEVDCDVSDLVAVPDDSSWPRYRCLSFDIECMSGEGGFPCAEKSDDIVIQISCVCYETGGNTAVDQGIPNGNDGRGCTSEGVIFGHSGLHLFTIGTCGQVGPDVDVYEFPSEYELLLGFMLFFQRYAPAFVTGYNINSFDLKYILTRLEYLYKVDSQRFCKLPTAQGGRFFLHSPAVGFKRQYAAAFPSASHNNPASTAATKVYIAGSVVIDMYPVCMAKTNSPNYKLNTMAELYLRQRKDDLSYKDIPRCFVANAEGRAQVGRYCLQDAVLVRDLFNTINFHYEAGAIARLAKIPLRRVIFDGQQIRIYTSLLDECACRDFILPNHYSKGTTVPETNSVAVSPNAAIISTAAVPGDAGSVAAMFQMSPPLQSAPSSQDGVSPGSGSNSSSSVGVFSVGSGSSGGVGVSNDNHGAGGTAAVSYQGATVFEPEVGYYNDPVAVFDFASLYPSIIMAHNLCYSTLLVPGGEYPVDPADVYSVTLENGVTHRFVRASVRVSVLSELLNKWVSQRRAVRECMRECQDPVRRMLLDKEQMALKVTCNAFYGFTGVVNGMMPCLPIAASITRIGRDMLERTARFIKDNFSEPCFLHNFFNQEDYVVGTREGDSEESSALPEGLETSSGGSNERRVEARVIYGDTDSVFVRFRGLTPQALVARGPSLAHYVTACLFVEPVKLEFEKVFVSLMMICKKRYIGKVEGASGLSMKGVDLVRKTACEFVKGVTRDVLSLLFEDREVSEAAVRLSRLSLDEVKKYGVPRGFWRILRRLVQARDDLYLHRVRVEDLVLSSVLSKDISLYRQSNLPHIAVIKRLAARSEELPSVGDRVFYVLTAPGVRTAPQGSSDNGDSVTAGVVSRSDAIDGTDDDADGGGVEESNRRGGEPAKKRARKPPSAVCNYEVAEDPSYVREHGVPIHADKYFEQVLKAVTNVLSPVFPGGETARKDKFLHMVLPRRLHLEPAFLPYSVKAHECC
Description: biochemical.
Settings: not given
On the procedure:
The HCMV polymerase assay is performed using a scintillation proximity assay (SPA) as described in several references, such as N. D. Cook, et al., Pharmaceutical Manufacturing International, pages 49-53 (1992); K. Takeuchi, Laboratory Practice, September issue (1992); U.S. Pat. No. 4,568,649 (1986); which are incorporated by reference herein. Reactions are performed in 96-well plates. The assay is conducted in 100 μl volume with 5.4 mM HEPES (pH 7.5), 11.7 mM KCl, 4.5 mM MgCl2, 0.36 mg/ml BSA, and 90 nM ^3 H-dTTP. Assays are run with and without CHAPS, (3-[(3-Cholamidopropyl)dimethylammonio]-1-propane-sulfonate) at a final concentration of 2 mM. HCMV polymerase is diluted in enzyme dilution buffer containing 50% glycerol, 250 mM NaCl, 10 mM HEPES (pH 7.5), 100 μg/ml BSA, and 0.01% sodium azide. The HCMV polymerase, which is expressed in recombinant baculovirus-infected SF-9 cells and purified according to literature procedures, is added at 10% (or 10 μl) of the final reaction volume, i.e., 100 μl. Compounds are diluted in 50% DMSO and 10 μl are added to each well. Control wells contain an equivalent concentration of DMSO. Unless noted otherwise, reactions are initiated via the addition of 6 nM biotinylated poly(dA)-oligo(dT) template/primer to reaction mixtures containing the enzyme, substrate, and compounds of interest. Plates are incubated in a 25 C. or 37 C. H2 O bath and terminated via the addition of 40 μl/reaction of 0.5 M EDTA (pH 8) per well. Reactions are terminated within the time-frame during which substrate incorporation is linear and varied depending upon the enzyme and conditions used, i.e., 30 min. for HCMV polymerase. Ten μl of streptavidin-SPA beads (20 mg/ml in PBS/10% glycerol) are added following termination of the reaction. Plates are incubated 10 min. at 37 C., then equilibrated to room temperature, and counted on a Packard Topcount. Linear regressions are performed and IC50 's are calculated using computer software.
A modified version of the above HCMV polymerase assay is performed as described above, but with the following changes: Compounds are diluted in 100% DMSO until final dilution into assay buffer. In the previous assay, compounds are diluted in 50% DMSO. 4.5 mM dithiotherotol (DTT) is added to the polymerase buffer.
One may read the IC50 as the concentration at which inhibition is half-maximal. Low readings indicate greater potency in that assay, high ones weaker potency in that assay. In turn, `O=C(NCc1ccc(Cl)cc1)c1cn(CCCOC2CCCCO2)c2c(F)cc(CO)cc2c1=O` (stereo not shown) [Example 6, N-(4-Chlorobenzyl)-8-fluoro-6-(hydroxymethyl)-4-oxo-1-[3-(tetrahydro-2H-pyran-2-yloxy)propyl]-1,4-dihydro-3-quinolinecarboxamide] yielded an IC50 of 7200 nM.

`CN1CCCC1CCn1cc(C(=O)NCc2ccc(Cl)cc2)c(=O)c2cc(C#CCO)ccc21` (stereo not shown) [Example 16, N-(4-Chlorobenzyl)-1,4-dihydro-6-(3-hydroxy-1-propynyl)-1-[2-(1-methyl-2-pyrrolindinyl)ethyl]-4-oxo3-quinolinecarboxamide] showed a half-maximal inhibitory concentration (IC50) of 2800 nM.

`O=C(NCc1ccc(Cl)cc1)c1cn(CCN2CCCC2)c2ccc(C#CCO)cc2c1=O` [Example 18, N-(4-Chlorobenzyl)-6-(3-hydroxy-1-propynyl)-1-[2-(1-pyrolidinyl)ethyl]-4-oxo-1,4-dihydro-3-quinolinecarboxamide] had an IC50 of 2700 nM.

In turn, `O=C(NCc1ccc(Cl)cc1)c1cn(CCN2CCOCC2)c2ccc(C#CCO)cc2c1=O` [Example 19, N-(4-Chlorobenzyl)-6-(3-hydroxy-1-propynyl)-1-[2-(4-morpholinyl)ethyl]-4-oxo-1,4-dihydro-3-quinolinecarboxamide] gave a half-maximal inhibitory concentration (IC50) of 1800 nM.

Still in this experiment, the particulars now being: HCMV polymerase; SPA; modified assay: compounds in 100% DMSO, 4.5 mM DTT.
The compound `CN(CCS(=O)(=O)O)C(=O)CCCCCCC(=O)OCCCc1ccc2c(c1)c(=O)c(C(=O)NCc1ccc(Cl)cc1)cn2C1CC1` registered a concentration for half-maximal inhibition (IC50) of over 20000 nM.

`CC(C)n1cc(C(=O)NCc2ccc(Cl)cc2)c(=O)c2cc(C#CCO)ccc21` [Example 1, N-(4-Chlorobenzyl)-6-(3-hydroxy-1-propynyl)-1-isopropyl-4-oxo-1,4-dihydro-3-quinolinecarboxamide] registered an IC50 of 1700 nM.

In turn, `CCC(C)n1cc(C(=O)NCc2ccc(Cl)cc2)c(=O)c2cc(C#CCO)ccc21` (stereo not shown) [Example 2, 1-(sec-butyl)-N-(4-chlorobenzyl)-6-(3-hydroxy-1-propynyl)-4-oxo-1,4-dihydro-3-quinolinecarboxamide] registered an IC50 of 1600 nM.

`CCC(C)n1cc(C(=O)NCc2ccc(Cl)cc2)c(=O)c2cc(C#CCO)cc(OC)c21` (stereo not shown) [Example 3, 1-(sec-butyl)-N-(4-chlorobenzyl)-6-(3-hydroxy-1-propynyl)-8-methoxy-4-oxo-1,4-dihydro-3-quinolinecarboxamide] had a half-maximal inhibitory concentration (IC50) of 2300 nM.

For `Cn1cc(C(=O)NCc2ccc(Cl)cc2)c(=O)c2cc(CCCO)cc(OC(CO)CO)c21` [Example 5, N-(4-Chlorobenzyl)-8-[2-hydroxy-1-(hydroxymethyl)ethoxy]-6-(3-hydroxypropyl)1-methyl-4-oxo-1,4-dihydro-3-quinolinecarboxamide], the half-inhibitory concentration (IC50) was 1600 nM.

As for `Cn1cc(C(=O)NCc2ccc(Cl)cc2)c(=O)c2cc(C#CCO)cc(F)c21` [Example 8, N-(4-Chlorobenzyl)-8-fluoro-6-(3-hydroxy-1-propynyl)-1-methyl-4-oxo-1,4-dihydro-3-quinolinecarboxamide], inhibition was half-maximal at 1000 nM (IC50).

Consider `Cn1cc(C(=O)NCc2ccc(Cl)cc2)c(=O)c2cc(/C=C\CO)cc(F)c21` [Example 9, N-(4-Chlorobenzyl)-8-fluoro-6-[(Z)-3-hydroxy-1-propenyl)-1-methyl-4-oxo-1,4-dihydro-3-quinolinecarboxamide], for which the half-maximal inhibitory concentration (IC50) was under 780 nM.

In the case of `CCN(CC)CCn1cc(C(=O)NCc2ccc(Cl)cc2)c(=O)c2cc(C#CCO)cc(F)c21` [Example 10, N-(4-Chlorobenzyl)-1-[2-(diethylamino)ethyl]-8-fluoro-6-(3-hydroxy-1-propynyl)-4-oxo-1,4-dihydro-3-quinolinecarboxamide], half-maximal inhibition (IC50) was put at 1700 nM.

With `CCCn1cc(C(=O)NCc2ccc(Cl)cc2)c(=O)c2cc(C#CCO)ccc21` [Example 11, N-(4-Chlorobenzyl)-6-(3-hydroxy-1-propynyl)-4-oxo-1-propyl-1,4-dihydro-3-quinolinecarboxamide], the IC50 was 1500 nM.

Regarding `CN(C)CCn1cc(C(=O)NCc2ccc(Cl)cc2)c(=O)c2cc(C#CCO)ccc21` [Example 13, N-(4-Chlorobenzyl)-1-[2-(dimethylamino)ethyl]-6-(3-hydroxy-1-propynyl)-4-oxo-1,4-dihydro-3-quinolinecarboxamide, hydrochloride salt], 2900 nM corresponded to half-maximal inhibition (IC50).

Regarding `O=C(NCc1ccc(Cl)cc1)c1cn(CCCN2CCCCC2)c2ccc(C#CCO)cc2c1=O` [Example 15, N-(4-Chlorobenzyl)-6-(3-hydroxy-1-propynyl)-1-[3-(1-piperidinyl)propyl]-4-oxo-1,4-dihydro-3-quinolinecarboxamide], half-maximal inhibition (IC50) required 4100 nM.

In turn, `CN(C)CCCn1cc(C(=O)NCc2ccc(Cl)cc2)c(=O)c2cc(C#CCO)ccc21` [Example 20, N-(4-Chlorobenzyl)-1-[3-(dimethylamino)propyl]-6-(3-hydroxy-1-propynyl)-4-oxo-1,4-dihydro-3-quinolinecarboxamide] showed an IC50 of 3800 nM.

Consider `C=Cn1cc(C(=O)NCc2ccc(Cl)cc2)c(=O)c2cc(C#CCO)ccc21` [Example 21, N-(4-Chlorobenzyl)-6-(3-hydroxy-1-propynyl)-4-oxo-1-vinyl-1,4-dihydro-3-quinolinecarboxamide], for which the half-maximal inhibitory concentration (IC50) was found to be 1400 nM.

As to `Cn1cc(C(=O)NCc2ccc(Cl)cc2)c(=O)c2cc(/C=C/CO)ccc21` [Example 22, N-(4-chlorobenzyl)-6-[(E)-3-hydroxy-1-propenyl]-1-methyl-4-oxo-1,4-dihydro-3-quinolinecarboxamide], the 50% inhibitory concentration (IC50) is 810 nM.

`Cn1cc(C(=O)NCc2ccc(Cl)cc2)c(=O)c2cc(/C=C\CO)ccc21` [Example 23, N-(4-chlorobenzyl)-6-[(Z)-3-hydroxy-1-propenyl]-1-methyl-4-oxo-1,4-dihydro-3-quinolinecarboxamide]: the midpoint of inhibition, the IC50, lay at 620 nM.

Regarding `CCN(CCO)c1ccc2c(c1)c(=O)c(C(=O)NCc1ccc(Cl)cc1)cn2C` [Example 24, N-(4-Chlorobenzyl)-6-[ethyl(2-hydroxyethyl)amino]-1-methyl-4-oxo-1,4-dihydro-3-quinolinecarboxamide], the half-inhibitory concentration (IC50) was 23600 nM.

For `O=C(NCc1ccc(Cl)cc1)c1cn(C2CC2)c2ccc(CN3CCOCC3)cc2c1=O` [Example 27, N-(4-Chlorobenzyl)-1-cyclopropyl-6-(4-morpholinylmethyl)-4-oxo-1,4-dihydro-3-quinolinecarboxamide], the IC50 stood at 610 nM.

In turn, `CC(C)(C)OC(=O)Cn1cc(C(=O)NCc2ccc(Cl)cc2)c(=O)c2cc(C#CCO)ccc21` [Example 28, tert-Butyl 2-[3-{[(4-chlorobenzyl)amino]carbonyl}-6-(3-hydroxy-1-propynyl)-4-oxo-1(4H)-quinolinyl]acetate] gave an IC50 of 1800 nM.

With `O=C(O)Cn1cc(C(=O)NCc2ccc(Cl)cc2)c(=O)c2cc(C#CCO)ccc21` [Example 29, 2-[3-{[(4-Chlorobenzyl)amino]carbonyl}-6-(3-hydroxy-1-propynyl)-4-oxo-1(4H)-quinolinyl]acetic acid], the half-maximal inhibitory concentration (IC50) is 1000 nM.

Compound `O=C(NCc1ccc(Cl)cc1)c1cn(CCO)c2ccc(C#CCO)cc2c1=O` [Example 30, N-(4-Chlorobenzyl)-1-(2-hydroxyethyl)-6-(3-hydroxy-1-propynyl)-4-oxo-1,4-dihydro-3-quinolinecarboxamide] displayed an IC50 of 950 nM.

Take `Cn1cc(C(=O)NCc2ccc(Cl)cc2)c(=O)c2cc(CCCOP(=O)(OC(C)(C)C)OC(C)(C)C)ccc21` [Example 32, Di(tert-butyl) 3-(3-{[(4-chlorobenzyl)amino]carbonyl}-1-methyl-4-oxo-1,4-dihydro-6-quinolinyl)propyl phosphate]: the IC50 was found to be 27200 nM.

Compound `Cn1cc(C(=O)NCc2ccc(Cl)cc2)c(=O)c2cc(CCCOP(=O)(O)O)ccc21` [Example 33, 3-(3-{[(4-Chlorobenzyl)amino]carbonyl}-1-methyl-4-oxo-1,4-dihydro-6-quinolinyl)propyl dihydrogen phosphate] returned an IC50 of 3700 nM.

In turn, `CC(C)(C)OP(=O)(OCCCc1ccc2c(c1)c(=O)c(C(=O)NCc1ccc(Cl)cc1)cn2C1CC1)OC(C)(C)C` [Example 34, Di(tert-butyl) 3-(3-{[(4-chlorobenzyl)amino]carbonyl}-1-cyclopropyl-4-oxo-1,4-dihydro-6-quinolinyl)propyl phosphate] displayed an IC50 of over 20000 nM.

For `CN(CCS(=O)(=O)O)C(=O)CCCCCCC(=O)OCC#Cc1ccc2c(c1)c(=O)c(C(=O)NCc1ccc(Cl)cc1)cn2C` [Example 37, Sodium 2-[(8-{[3-(3-{[(^4-chlorobenzyl)amino]carbonyl}-1-methyl-4-oxo-1,4-dihydro-6-quinolinyl)-2-propynyl]oxy}-8-oxooctanoyl)(methyl)amino]-1-ethanesulfonate], the IC50 was over 20000 nM.

The record behind these values is patent US6248739A, “Quinolinecarboxamides as antiviral agents” (Pharmacia & Upjohn Company, priority 1999, dated 2001).
